Where no end group is shown, it is not given here.
Experiment: Metabolic phenotype (body weight, metabolic organ weights) after LGI3 antagonist peptide injection
Type: in vivo, mouse
Method: LGI3 P34, made with a mouse LGI3 antagonist peptide, is a 15mer synthetic peptide containing amino acids (aa) […] (DEGRQKFVRFQELAV (SEQ ID NO:3)) of mouse Lgi3. The synthetic LGI3 peptide was dissolved in PBS and sterilized by filtration. PBS injection was used as a control for mouse experiments. All peptides were synthesized by Peptron (Seoul, Korea). Apoe^−/− mice fed a high fat diet for 16 weeks were intraperitoneally injected with PBS or the LGI3 antagonist peptide twice a week for the last 5 weeks.
Statistical analysis was performed using InStat. A two-sided Mann-Whitney U-test was used for comparison between two groups, and one-way ANOVA was used for comparisons among three or more groups. All data is presented as mean s.e.m, and P-values of ≤0.05 were considered statistically significant.

With “DEGRQKFVRFQELAV [LGI3 P34, DEGRQKFVRFQELAV]” the epididymal fat weight (Apoe −/− mice, high fat diet 16 weeks, intraperitoneal injection for the last 5 weeks, n=9, PBS control 1.689±0.43, P=0.84) was 1.58±0.51%, the body weight (Apoe −/− mice, high fat diet 16 weeks, intraperitoneal injection for the last 5 weeks, n=9, PBS control 39.22±3.51, P=0.536) was 38.08 ± 2.19 g and the “metabolic phenotype (in words)” value (body weight, WAT, spleen and liver weight to body weight versus control mice, FIG. 6) was “not changed”.

— patent publication US12188947B2, “Marker for diagnosing atherosclerosis severity, and diagnostic method using same” (EWHA UNIVERSITY—INDUSTRY COLLABORATION FOUNDATION, priority 2018, dated 2025)
